Target: T1, MA-ACR (parent A, A-AAAAAAAA) (Marinobacter nauticus, UniProt A1U3L3)
T1 construct: gene Maqu_2507; full-length two-domain enzyme (N-terminal AHR, C-terminal ATR), pET28, E. coli host, purified by the same method as His-tagged E. coli ACP; reported elsewhere as tetrameric
T1 sequence (A1U3L3 1-661): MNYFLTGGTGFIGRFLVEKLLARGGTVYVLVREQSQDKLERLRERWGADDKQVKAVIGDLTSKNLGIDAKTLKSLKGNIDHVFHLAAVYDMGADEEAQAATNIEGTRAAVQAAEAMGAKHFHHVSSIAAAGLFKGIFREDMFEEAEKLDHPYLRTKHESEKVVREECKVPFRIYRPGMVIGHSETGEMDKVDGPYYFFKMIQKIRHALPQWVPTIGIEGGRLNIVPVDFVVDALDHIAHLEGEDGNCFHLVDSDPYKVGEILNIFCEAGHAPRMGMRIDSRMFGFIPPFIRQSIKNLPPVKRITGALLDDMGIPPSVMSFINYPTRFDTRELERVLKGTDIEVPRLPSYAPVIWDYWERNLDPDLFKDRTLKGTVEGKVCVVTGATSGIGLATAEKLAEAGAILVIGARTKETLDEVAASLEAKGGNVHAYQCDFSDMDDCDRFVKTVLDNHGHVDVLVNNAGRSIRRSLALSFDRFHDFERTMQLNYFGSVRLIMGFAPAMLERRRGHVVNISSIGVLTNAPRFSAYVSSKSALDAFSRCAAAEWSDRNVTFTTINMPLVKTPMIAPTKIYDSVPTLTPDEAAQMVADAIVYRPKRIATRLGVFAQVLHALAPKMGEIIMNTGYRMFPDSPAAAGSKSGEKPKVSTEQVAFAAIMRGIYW
Assay: DTNB release assay, A412, 96-well plate
Type: biochemical
Details: 200 µM NADPH, 1 µM enzyme, 250-252 µM DTNB, 20 mM Tris, 50 mM NaCl, pH 7

For CCCCCCCCCCCCCCCC(=O)SCCNC(=O)CCNC(=O)[C@H](O)C(C)(C)COP(=O)(O)OP(=O)(O)OC[C@H]1O[C@@H](n2cnc3c(N)ncnc32)[C@H](O)[C@@H]1OP(=O)(O)O [palmitoyl-CoA], the “DTNB release assay, A412, 96-well plate” value was “ATR-83 has a lower activity than the parents on palmitoyl-CoA”.

From paper PMC8492656, “Machine learning-guided acyl-ACP reductase engineering for improved in vivo fatty alcohol production” (Nature Communications, 2021)
